Experiments:
Type in all cases: cell-based
[1] = target: T1, T2R01 (TAS2R01) (Homo sapiens, UniProt Q9NYW7); experiment: FLIPR calcium assay, block of bitter agonist response, T2R01; details: unsaturated fatty acid concentration of 200 µM, cells stimulated with known bitter agonist, read-out: percentage block of cellular response over baseline, 01
T1 construct: expressed in transfected cells; host or cells: cells expressing a promiscuous G protein (e.g., G16g44)
T1 sequence (Q9NYW7 1-299): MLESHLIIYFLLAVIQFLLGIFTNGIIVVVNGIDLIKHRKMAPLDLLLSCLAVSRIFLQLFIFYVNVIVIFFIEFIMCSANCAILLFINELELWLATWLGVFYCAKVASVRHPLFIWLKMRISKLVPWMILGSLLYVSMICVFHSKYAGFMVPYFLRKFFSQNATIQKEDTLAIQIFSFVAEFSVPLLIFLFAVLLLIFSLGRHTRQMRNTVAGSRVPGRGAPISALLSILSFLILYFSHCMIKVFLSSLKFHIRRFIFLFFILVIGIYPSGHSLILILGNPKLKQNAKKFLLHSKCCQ
Experimental: (§1) Cells expressing a promiscuous […] (e.g., G16g44) were transfected with vectors encoding 18 functional bitter receptor cDNAs, with one receptor per transfection. The cells were transfected directly in 384-well format high-density plates and incubated for 28 hours. Later, cells were loaded with the Ca-specific dye Fluo4-AM. After an incubation of 60 minutes, excess dye is washed off, and cells are stimulated with a known bitter agonist for each receptor and various unsaturated fatty acids. Changes in intracellular fluorescence are recorded using a FLIPR instrument. Bitter antagonists and corresponding receptors are identified based on percentage inhibition of agonist's activity on a given receptor.
(§2) The above protocol was carried out using 16 different unsaturated fatty acids. A particular T2R receptor was identified as being antagonized by a particular unsaturated fatty acid if it triggered a >25% block of agonist's cellular response at 200 μM concentration of unsaturated fatty acid. […] Table 2 indicates the sixteen (16) compounds tested by their compound number from Table 1 above. The 18 bitter taste receptors screened are the human bitter taste receptors we named. T2R01 (TAS2R01), T2R03 (TAS2R03), T2R04 (TAS2R04), T2R07 (TAS2R07), T2R08 (TAS2R08), T2R09 (TAS2R09), T2R10 (TAS2R10), T2R13 (TAS2R13), T2R14 (TAS2R14), T2R16 (TAS2R16), T2R54 (TAS2R39, T2R61 (TAS2R43), T2R63 (TA2R20), T2R64 (TAS2R31), T2R65 (TAS2R19), T2R67 (TAS2R50), T2R71 (TAS2R41), and T2R75 (TAS2R46). The corresponding IUPHAR nomenclature for each receptor is given in parenthesis. In Table 2, these receptors are identified by the last two digits. For example, T2R01 is indicated as 01. Table 2 reports the percentage block of cellular response over baseline at an unsaturated fatty acid concentration of 200 µM.

[2] = target: T2, T2R07 (TAS2R07) (Homo sapiens, UniProt Q9NYW3); experiment: FLIPR calcium assay, block of bitter agonist response, T2R07; details: unsaturated fatty acid concentration of 200 µM, cells stimulated with known bitter agonist
T2 construct: expressed in transfected cells; host or cells: cells expressing a promiscuous G protein (e.g., G16g44)
T2 sequence (Q9NYW3 1-318): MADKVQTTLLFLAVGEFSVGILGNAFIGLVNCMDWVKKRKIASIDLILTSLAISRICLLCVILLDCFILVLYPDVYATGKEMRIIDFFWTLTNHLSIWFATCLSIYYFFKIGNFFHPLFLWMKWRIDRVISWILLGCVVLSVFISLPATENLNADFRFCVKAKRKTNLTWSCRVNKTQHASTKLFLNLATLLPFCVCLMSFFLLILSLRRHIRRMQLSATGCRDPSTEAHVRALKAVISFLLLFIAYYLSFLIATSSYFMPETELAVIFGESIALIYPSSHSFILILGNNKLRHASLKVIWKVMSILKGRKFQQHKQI
Experimental: as §1
(§3) The above protocol was carried out using 16 different unsaturated fatty acids. A particular T2R receptor was identified as being antagonized by a particular unsaturated fatty acid if it triggered a >25% block of agonist's cellular response at 200 μM concentration of unsaturated fatty acid. […] Table 2 indicates the sixteen (16) compounds tested by their compound number from Table 1 above. The 18 bitter taste receptors screened are the human bitter taste receptors we named. […]

[3] = target: T3, T2R09 (TAS2R09) (Homo sapiens, UniProt Q9NYW1); experiment: FLIPR calcium assay, block of bitter agonist response, T2R09; details: unsaturated fatty acid concentration of 200 µM, cells stimulated with known bitter agonist
T3 construct: expressed in transfected cells; host or cells: cells expressing a promiscuous G protein (e.g., G16g44)
T3 sequence (Q9NYW1 1-312): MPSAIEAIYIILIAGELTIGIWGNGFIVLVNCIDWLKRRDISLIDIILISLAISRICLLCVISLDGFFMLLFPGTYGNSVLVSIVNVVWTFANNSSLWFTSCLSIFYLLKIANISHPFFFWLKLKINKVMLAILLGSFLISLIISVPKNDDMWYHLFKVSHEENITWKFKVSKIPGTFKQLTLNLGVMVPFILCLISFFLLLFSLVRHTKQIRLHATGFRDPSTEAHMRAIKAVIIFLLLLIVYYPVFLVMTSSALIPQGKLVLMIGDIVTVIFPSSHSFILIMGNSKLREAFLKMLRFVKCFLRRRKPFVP
Experimental: as §1, §3

[4] = target: T4, T2R10 (TAS2R10) (Homo sapiens, UniProt Q9NYW0); experiment: FLIPR calcium assay, block of bitter agonist response, T2R10; details: unsaturated fatty acid concentration of 200 µM, cells stimulated with known bitter agonist, read-out: percentage block of cellular response over baseline, 10
T4 construct: expressed in transfected cells; host or cells: cells expressing a promiscuous G protein (e.g., G16g44)
T4 sequence (Q9NYW0 1-307): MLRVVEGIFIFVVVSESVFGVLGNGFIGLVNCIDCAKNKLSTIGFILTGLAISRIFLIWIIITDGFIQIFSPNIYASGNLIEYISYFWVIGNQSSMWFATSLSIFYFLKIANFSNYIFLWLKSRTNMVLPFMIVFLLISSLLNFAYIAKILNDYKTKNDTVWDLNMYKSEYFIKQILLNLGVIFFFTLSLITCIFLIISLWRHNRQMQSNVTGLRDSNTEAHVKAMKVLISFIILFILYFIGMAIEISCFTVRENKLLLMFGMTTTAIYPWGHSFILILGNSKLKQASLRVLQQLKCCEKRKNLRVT
Experimental: as §1, §2

[5] = target: T5, T2R61 (TAS2R43) (Homo sapiens, UniProt P59537); experiment: FLIPR calcium assay, block of bitter agonist response, T2R61; details: unsaturated fatty acid concentration of 200 µM, cells stimulated with known bitter agonist
T5 construct: expressed in transfected cells; host or cells: cells expressing a promiscuous G protein (e.g., G16g44)
T5 sequence (P59537 1-309): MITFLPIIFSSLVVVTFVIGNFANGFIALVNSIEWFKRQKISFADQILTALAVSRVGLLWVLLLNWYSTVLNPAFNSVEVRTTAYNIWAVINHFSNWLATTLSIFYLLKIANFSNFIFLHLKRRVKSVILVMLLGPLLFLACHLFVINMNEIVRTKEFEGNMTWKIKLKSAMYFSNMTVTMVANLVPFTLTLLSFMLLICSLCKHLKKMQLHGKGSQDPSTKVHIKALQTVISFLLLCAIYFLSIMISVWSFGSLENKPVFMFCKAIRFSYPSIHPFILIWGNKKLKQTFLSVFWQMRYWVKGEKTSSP
Experimental: as §1, §3

`CC(C)=CCC/C(C)=C/C(=O)O` [Compound 129] was tested, and the inhibition at 200 µM [1] was 40%, the “percentage block of cellular response over baseline, 07” value [2] was over 90% and the “percentage block of cellular response over baseline, 09” value [3] was 30%. The inhibition at 200 µM [4] was over 65% and the “percentage block of cellular response over baseline, 61” value [5] was over 90%.
